Patent US8715761B2, “Flavor molecules” (Givaudan S.A., priority 2008, dated 2014)

What was measured:
Assay type in all cases: in vivo
[1] = Taste testing in water by a panel of experienced tasters
Description: The taste testing was made by a panel of experienced tasters.

[2] = Isointensity (R-index) of 20 ppm Compound 13 in water, alone and with 7% sucrose, versus sucrose solutions
Description: The sweet enhancement effect of Compound 13 is illustrated in the following tables: the isointensity of Compound 13 at 20 ppm equals 0.5% sucrose. The isointensity of 7% sucrose with 20 ppm 1-(2-hydroxyphenyl)-3-(pyridin-4-yl)propan-1-one is 8% sucrose. Therefore, the perceived enhancement of sucrose is about 0.5% sucrose (8%-7.5%). This sweet enhancement effect is also observed with consumable products containing other natural and artificial sweeteners, for example, carbohydrates; sucrose, lactose, D-glucose, D-tagatose, D-fructose whether naturally- or synthetically-produced, erythritol, threitol, arabitol, ribitol, xylitol, sorbitol, mannitol, maltitol, isomaltitol, dulcitol, and lactitol, thaumatin, glycin, D-phenylalanine, D-tryptophan, sodium cyclamate, acesulfam K, neohesperidine dihydrochalcone, sodium salt of saccharin, aspartame, superaspartame, neotam, alitam, sucralose, and stevioside.

[3] = Flavorist evaluation of how Compound 13 modifies a flavor in water and in application
Description: Evaluation Data on the Compound of Example 13, showing how it Modifies a Flavor in Water and in Application.
Strawberry A=candy strawberry. Strawberry B=green strawberry. Strawberry C=floral strawberry. Strawberry D=fruity strawberry.

[4] = Sweet isointensity against sugar solutions by a testing panel
Procedure: The sweet isointensity was tested against a variety of sugar solutions by a testing panel.

[5] = Sweetness in plain non-fat yoghurt by a trained panel; details: 5% sugar and 25 ppm of the compound in plain non-fat yoghurt
Procedure: 5% sugar and 25 ppm of the compound were added to plain non-fat yoghurt. A trained panel compared this to a series of plain non-fat yoghurts to which 5%, 6% 7% and 8% sugar had been added.

[6] = 7% sucrose + 20 ppm Cmpd 13 in water vs. 7% sucrose
[7] = 7% sucrose + 20 ppm Cmpd 13 in water vs. 8% sucrose
[8] = 7% sucrose + 20 ppm Cmpd 13 in water vs. 9% sucrose
[9] = 7% sucrose + 20 ppm Cmpd 13 in water vs. 10% sucrose
[10] = 20 ppm Compound 13 in water vs. 0.5% sucrose
[11] = 20 ppm Compound 13 in water vs. 1% sucrose

Question: With `COc1ccc(CCC(=O)c2ccccc2O)cn1` [Example 1, 1-(2-hydroxyphenyl)-3-(6-methoxypyridin-3-yl)propan-1-one] as the compound, how does the “Taste results in water” value ([1]; 5 ppm) read?
Answer: Its value is “very weak sweet”.

Question: And the “Taste results in water” value ([1]; 20 ppm)?
Answer: Its value is “weakly sweet”.

Question: And the “Taste results in water” value ([1]; 100 ppm)?
Answer: The value was “very strong sweet, weak bitter taste”.

Question: Which “Taste results in water” value ([1]; 10 ppm) does the source give for `COc1cccc(CCC(=O)c2ccccc2O)n1` [Example 2, 1-(2-hydroxyphenyl)-3-(6-methoxypyridin-2-yl) propan-1-one] here?
Answer: The value was “Slightly sweet/bitter”.

Question: And the “Taste results in water” value ([1]; 100 ppm)?
Answer: The value was “sweet, bitter, slight fruity”.

Question: For `COc1ncccc1CCC(=O)c1ccccc1O` [Example 3, 1-(2-hydroxyphenyl)-3-(2-methoxypyridin-3-yl)propan-1-one], which “Taste results in water” value ([1]; 1 ppm) is on record?
Answer: The value was “Very weak sweet”.

Question: What about the “Taste results in water” value ([1]; 10 ppm) of the same compound?
Answer: Its value is “Very weak sweet”.

Question: What about the “Taste results in water” value ([1]; 50 ppm) of the same compound?
Answer: Its value is “bitter, weakly sweet and burning”.

Question: With `Cc1ncsc1CCC(=O)c1ccccc1O` [Example 4, 1-(2-hydroxyphenyl)-3-(4-methylthiazol-5-yl)propan-1-one] as the compound, how does the “Taste results in water” value ([1]; 0.1 to 1 ppm) read?
Answer: Its value is “petroleum, sulfur”.

Question: What about the “Taste results in water” value ([1]; 10 ppm) of the same compound?
Answer: Its value is “very weak sweet, brothy”.

Question: What about the “Taste results in water” value ([1]; 100 ppm) of the same compound?
Answer: Its value is “sweet, brothy, gassy, bitter, linger”.

Question: Which results are given for `Cc1cc(CCC(=O)c2ccccc2O)no1` [Example 6, 1-(2-hydroxyphenyl)-3-(5-methylisoxazol-3-yl)propan-1-one]?
Answer: Taste results in water ([1]; 0.1 ppm): slightly bitter; Taste results in water ([1]; 1 ppm): slightly bitter, weakly sweet; Taste results in water ([1]; 10 ppm): brothy, umami, soapy, irritating, garlic; Taste results in water ([1]; 100 ppm): umami, bitter, soapy, garlic

Question: For `O=C(CCc1cccnc1)c1ccccc1O` [Example 7, 1-(2-hydroxyphenyl)-3-(pyridin-3-yl)propan-1-one], which “Taste results in water” value ([1]; 0.1 ppm) is on record?
Answer: Its value is “nothing”.

Question: And the “Taste results in water” value ([1]; 1 ppm)?
Answer: Its value is “very weak sweet, astringent”.

Question: What about the “Taste results in water” value ([1]; 10 ppm) of the same compound?
Answer: The value was “waxy, delayed sweet, astringent”.

Question: What about the “Taste results in water” value ([1]; 100 ppm) of the same compound?
Answer: Its value is “weak sweet, chemical, bitter”.

Question: What does the source list for `O=C(CCc1ccco1)c1ccccc1O` [Example 8, 3-(furan-2-yl)-1-(2-hydroxyphenyl)propan-1-one]?
Answer: Taste results in water ([1]; 0.01 ppm): nothing; Taste results in water ([1]; 0.1 ppm): soap, delayed sweet; Taste results in water ([1]; 1 ppm): soap, umami, bitter; Taste results in water ([1]; 10 ppm): licorice aroma, soapy, weak sweet, bitter, vegetable, terpen; Taste results in water ([1]; 100 ppm): bitter, licorice aroma, weak sweet, celery, umami, brothy

Question: Which results are given for `Cc1csc(CCC(=O)c2ccccc2O)n1` [Example 11, 1-(2-hydroxyphenyl)-3-(4-methylthiazol-2-yl)propan-1-one]?
Answer: Taste results in water ([1]; 0.01 ppm): nothing; Taste results in water ([1]; 0.1 ppm): very weak bitter; Taste results in water ([1]; 1 ppm): astringent, bitter; Taste results in water ([1]; 10 ppm): bitter, astringent; Taste results in water ([1]; 100 ppm): bitter, terpen, weak sweet

Question: With `O=C(CCc1ccccn1)c1ccccc1O` [Example 12, 1-(2-hydroxyphenyl)-3-(pyridin-2-yl)propan-1-one] as the compound, how does the “Taste results in water” value ([1]; 1 ppm) read?
Answer: Its value is “umami”.

Question: What about the “Taste results in water” value ([1]; 10 ppm) of the same compound?
Answer: The value was “high umami like taste”.

Question: And the “Taste results in water” value ([1]; 100 ppm)?
Answer: The value was “strong umami, slightly bitter”.

Question: Which results are given for `O=C(CCc1ccncc1)c1ccccc1O` [Example 13, 1-(2-hydroxyphenyl)-3-(pyridin-4-yl)propan-1-one]?
Answer: R-index [2, 6]: 66%; sample sweetness [2, 6]: sweeter; R-index [2, 7]: 43%; sample sweetness [2, 7]: isosweet; R-index [2, 8]: 8%; sample sweetness [2, 8]: less; R-index [2, 9]: 4%; sample sweetness [2, 9]: less; isointensity ([2]; 7% sucrose with 20 ppm compound): 8 % sucrose; R-index [2, 10]: 61%; sample sweetness [2, 10]: isosweet; R-index [2, 11]: 14%; sample sweetness [2, 11]: less sweet; perceived enhancement of sucrose ([2]; 20 ppm in 7% sucrose (8%-7.5%)): about 0.5 % sucrose; isointensity ([2]; 20 ppm in water): 0.5 % sucrose; Taste results in water ([1]; 0.01 ppm to 0.1 ppm): nothing; Taste results in water ([1]; 1 ppm): weak sweet; Taste results in water ([1]; 10 ppm): sweet; Taste results in water ([1]; 100 ppm): very sweet, licorice linger; Flavorist Evaluation ([3]; 2% milk, 20 ppm compound 13): Slight change in profile, Sweeter than control; Flavorist Evaluation ([3]; Cereal, 50% reduced sugar + 20 ppm of compound 13): Not lingering, more brown notes, roasted,; Flavorist Evaluation ([3]; Cereal, 50% reduced sugar + 20 ppm of compound 13 + 100 ppm of Sweet Flavor B): Nice, works well, more close to sugar taste,; Flavorist Evaluation ([3]; Cereal, 50% reduced sugar + 50 ppm of compound 13): Sweeter than 50% reduced control, better; Flavorist Evaluation ([3]; Strawberry yoghurt, 3% fat, 7% sugar, Strawberry flavour D @ 0.1% + 10 ppm of compound 13): Fruity, slightly fermented, caramellic, green; Flavorist Evaluation ([3]; Strawberry yoghurt, 3% fat, 7% sugar, Strawberry flavour D @ 0.1% + 25 ppm of compound 13): Fruity, sweet, fermented, caramellic, apple like; Flavorist Evaluation ([3]; Strawberry yoghurt, 3% fat, 7% sugar, Strawberry flavour D @ 0.1% + 50 ppm of compound 13): Fermented, sweet, brown, caramellic, overripe; Flavorist Evaluation ([3]; Vanilla ice cream, 8% vegetable fat, Vanilla flavour A @ 0.5% + 10 ppm of compound 13): creamy, vanillic, sweet, slightly cooked; Flavorist Evaluation ([3]; Vanilla ice cream, 8% vegetable fat, Vanilla flavour A @ 0.5% + 15 ppm of compound 13): creamy, sweet, vanillic, lingering sweet vanilla; Flavorist Evaluation ([3]; Vanilla ice cream, 8% vegetable fat, Vanilla flavour A @ 0.5% + 30 ppm of compound 13): sweet, vanillic, lingering sweet vanilla; Flavorist Evaluation ([3]; Water, 7% sugar + 20 ppm of compound 13): Sweeter than 7% sugar, little floral, fuller, slight; Flavorist Evaluation ([3]; Water, 7% sugar + 50 ppm of compound 13): Sweeter than above, very close to 9% sugar-; Flavorist Evaluation ([3]; Water, 7% sugar with 0.105% Citric acid + 20 ppm of compound 13): Sweeter than control, not effecting acidity,; Flavorist Evaluation ([3]; Water, 7% sugar with 0.105% Citric acid + 50 ppm of compound 13): Sweeter than sample at 20 ppm, musty, clean,; Flavorist Evaluation ([3]; Water, Strawberry A @ 0.2% + 20 ppm compound 13): Green character remains but softer, sweeter; Flavorist Evaluation ([3]; Water, Strawberry B @ 0.2% + 20 ppm compound 13): Sweeter, less green, jammer, maltol-like note,; Flavorist Evaluation ([3]; Water, Strawberry C @ 0.2% + 20 ppm compound 13): Less green, less floral, burnt sugar caramel; Flavorist Evaluation ([3]; Water, Sweetness Improver Flavor A + 5 ppm compound 13 in 25% sugar reduction Grape Type Drink): Sweet grape character with the acidic middle

Question: What does the source list for `O=C(CCc1nccs1)c1ccccc1O` [Example 15, 1-(2-hydroxyphenyl)-3-(thiazol-2-yl)propan-1-one]?
Answer: Taste results in water ([1]; 0.01 ppm): delayed umami aftertaste; Taste results in water ([1]; 0.1 ppm): delayed umami aftertaste; Taste results in water ([1]; 1 ppm): weak plastic, soap, umami, astringent; Taste results in water ([1]; 10 ppm): astringent. strong umami, weak soap, slight bitter; Taste results in water ([1]; 100 ppm): bitter. umami

Question: Which “Taste results in water” value ([1]; 100 ppm) does the source give for `COc1ccc(CCC(=O)c2ccc(O)cc2O)cn1` [Example 18] here?
Answer: Its value is 100 ppm, sweet.

Question: What does the source list for `Cl.O=C(CCc1ccncc1)c1ccccc1O` [Example 21, 4-(3-(2-hydroxyphenyl)-3-oxopropyl)pyridinium chloride]?
Answer: sweet isointensity (isosweet to) ([4]; 30 ppm): 0.75 % sucrose; sweetness equivalent ([4]; 30 ppm of the compound + 7% sucrose): 8.5 % sucrose; sweet isointensity (isosweet to) ([4]; 35 ppm): 1.0 % sucrose; sweet isointensity (isosweet to) ([4]; 40 ppm): 1.25 % sucrose; isosweet to [5]: 6.5 % sugar
